Measurements taken from ChEMBL document CHEMBL1201862, “PubChem BioAssay data set” (2004).
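Values below derive from 48-hour exposures of cells grown in 96-well plates, with endpoints linearly interpolated between the two concentrations bracketing the appropriate inhibition level. Here, GI50 denotes the concentration required for 50% inhibition of growth.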 Calls of active or inactive are those of the source. Cut-off read from the data, not from the text of the source: active = GI50 up to about 1.1 µM and inactive = higher.

Columns and labels:
Test in all cases: NCI-60 cell line screen, 48 h
SNB-19 = system: SNB-19
SNB-75 = system: SNB-75
SK-MEL-2 = system: SK-MEL-2
RPMI-8226 = system: RPMI-8226
EKVX = system: EKVX
UACC-257 = system: UACC-257
M14 = system: M14
ACHN = system: ACHN
HT-29 = system: HT-29
NCI-H226 = system: NCI-H226
HCT-15 = system: HCT-15
COLO 205 = system: COLO 205
IGROV-1 = system: IGROV-1
KM12 = system: KM12
MDA-MB-231 = system: MDA-MB-231
T47D = system: T47D
MDA-MB-435 = system: MDA-MB-435
MCF7 = system: MCF7
PC-3 = system: PC-3

SMILES	GI50 (SNB-19)	GI50 (SNB-75)	GI50 (SK-MEL-2)	GI50 (RPMI-8226)	GI50 (EKVX)	GI50 (UACC-257)	GI50 (M14)	GI50 (ACHN)	GI50 (HT-29)	GI50 (NCI-H226)	GI50 (HCT-15) [µM]	GI50 (COLO 205)	GI50 (IGROV-1)	GI50 (KM12)	GI50 (MDA-MB-231)	GI50 (T47D)	GI50 (MDA-MB-435)	GI50 (MCF7)	GI50 (PC-3)
Cc1ccc(C)c(N2C(=O)C(=O)C(c3nc4ccccc4s3)/C(=N\c3cccc4c(=O)[nH][nH]c(=O)c34)C2=O)c1 (stereo unspecified)	> 100 µM (inactive)	97.9 µM (inactive)	> 100 µM (inactive)	> 100 µM (inactive)	> 100 µM (inactive)	> 100 µM (inactive)	> 100 µM (inactive)	> 100 µM (inactive)	> 100 µM (inactive)	> 100 µM (inactive)	> 100	38.2 µM (inactive)	> 100 µM (inactive)	> 100 µM (inactive)	–	–	–	–	–
CC(=O)n1c2ccccc2c2nc3nc(Oc4ccc(C)cc4)c4ccccc4c3cc21	92 µM (inactive)	44.2 µM (inactive)	> 100 µM (inactive)	> 100 µM (inactive)	> 100 µM (inactive)	> 100 µM (inactive)	> 100 µM (inactive)	> 100 µM (inactive)	> 100 µM (inactive)	> 100 µM (inactive)	> 100	> 100 µM (inactive)	> 100 µM (inactive)	> 100 µM (inactive)	–	–	–	–	–
COC(=O)c1cc(C)ccc1C1CN=NC12Cc1cccc(C)c1C2=O (stereo unspecified)	55.1 µM (inactive)	77.3 µM (inactive)	–	16.8 µM (inactive)	23 µM (inactive)	30.9 µM (inactive)	16.7 µM (inactive)	28.2 µM (inactive)	36 µM (inactive)	33.1 µM (inactive)	27.6	–	37.7 µM (inactive)	26.2 µM (inactive)	25.6 µM (inactive)	12.3 µM (inactive)	26.3 µM (inactive)	30.1 µM (inactive)	–
C[Si](C)(C)OC1CC(=O)OC1n1cc(F)c(=O)[nH]c1=O (stereo unspecified)	> 55.1 µM (inactive)	65.9 µM (inactive)	> 100 µM (inactive)	3.14 µM (inactive)	8.18 µM (inactive)	> 64.3 µM (inactive)	48.6 µM (inactive)	11.7 µM (inactive)	8.32 µM (inactive)	> 86.9 µM (inactive)	9.44	21 µM (inactive)	> 96.6 µM (inactive)	18.1 µM (inactive)	–	–	–	–	–
CNC(=O)N1CN(c2ccccc2)C2(CCN(Cc3ccccc3)CC2)C1=O	> 100 µM (inactive)	> 100 µM (inactive)	–	43.4 µM (inactive)	74.6 µM (inactive)	> 100 µM (inactive)	> 100 µM (inactive)	> 100 µM (inactive)	15.6 µM (inactive)	> 100 µM (inactive)	15	35.6 µM (inactive)	5 µM (inactive)	29.9 µM (inactive)	19.5 µM (inactive)	1.87 µM (inactive)	–	8.93 µM (inactive)	93.1 µM (inactive)
Cc1cc(CC(O)(C(F)(F)F)C(F)(F)F)cc(CC(O)(C(F)(F)F)C(F)(F)F)n1	> 100 µM (inactive)	2.31 µM (inactive)	2.44 µM (inactive)	1.61 µM (inactive)	2.89 µM (inactive)	2.89 µM (inactive)	3.71 µM (inactive)	2.79 µM (inactive)	2.58 µM (inactive)	2.72 µM (inactive)	4.08	1.87 µM (inactive)	3.46 µM (inactive)	2.27 µM (inactive)	3.23 µM (inactive)	2.67 µM (inactive)	2.88 µM (inactive)	–	2.9 µM (inactive)
COc1cc(NCc2ccc3nc(OC)c(OC)nc3c2)cc(OC)c1OC	> 100 µM (inactive)	54.8 µM (inactive)	> 100 µM (inactive)	–	77.4 µM (inactive)	> 100 µM (inactive)	> 100 µM (inactive)	> 100 µM (inactive)	> 100 µM (inactive)	> 100 µM (inactive)	> 100	> 100 µM (inactive)	> 100 µM (inactive)	> 100 µM (inactive)	> 100 µM (inactive)	18.6 µM (inactive)	> 100 µM (inactive)	69.5 µM (inactive)	89.1 µM (inactive)
O=C(O)CNS(=O)(=O)c1ccc(NC(=O)c2cccc([N+](=O)[O-])c2)cc1	> 100 µM (inactive)	> 100 µM (inactive)	> 100 µM (inactive)	> 100 µM (inactive)	> 100 µM (inactive)	> 100 µM (inactive)	> 100 µM (inactive)	> 100 µM (inactive)	> 100 µM (inactive)	> 100 µM (inactive)	> 100	> 100 µM (inactive)	> 100 µM (inactive)	> 100 µM (inactive)	–	–	–	–	–
CCCCNC(=O)CCN(C(=O)O)S(=O)(=O)c1ccc(NC(=O)c2ccccc2)cc1	> 100 µM (inactive)	> 100 µM (inactive)	> 100 µM (inactive)	> 100 µM (inactive)	> 100 µM (inactive)	> 100 µM (inactive)	> 100 µM (inactive)	> 100 µM (inactive)	22 µM (inactive)	> 100 µM (inactive)	> 100	64.3 µM (inactive)	> 100 µM (inactive)	> 100 µM (inactive)	–	–	–	–	–
CCOC(CCCN1CCC2(CC1)C(=O)N(C)CN2c1ccccc1)(OCC)c1ccc(F)cc1	10.2 µM (inactive)	19.4 µM (inactive)	–	10.5 µM (inactive)	2.14 µM (inactive)	6.14 µM (inactive)	10.7 µM (inactive)	5.16 µM (inactive)	3.49 µM (inactive)	18.3 µM (inactive)	10.1	2.52 µM (inactive)	8.41 µM (inactive)	15.3 µM (inactive)	14.2 µM (inactive)	4.95 µM (inactive)	–	3.8 µM (inactive)	15.7 µM (inactive)
C=C1C(C)C2C(Cc3ccccc3)NC(=O)C23OC(=O)/C=C\CC(=O)CCC(C)C/C=C/C3C1O (stereo unspecified)	2.6 µM (inactive)	0.413 µM (active)	1.58 µM (inactive)	–	2.48 µM (inactive)	1.36 µM (inactive)	–	–	1.54 µM (inactive)	1.92 µM (inactive)	1.28	1.34 µM (inactive)	3.42 µM (inactive)	2.88 µM (inactive)	–	0.635 µM (active)	–	–	–
Cc1nc2c(s/c(=N\N)n2-c2ccccc2)c(=O)n1C	> 100 µM (inactive)	> 100 µM (inactive)	> 100 µM (inactive)	> 100 µM (inactive)	> 100 µM (inactive)	> 100 µM (inactive)	> 100 µM (inactive)	> 100 µM (inactive)	> 100 µM (inactive)	> 100 µM (inactive)	> 100	> 100 µM (inactive)	> 100 µM (inactive)	80.2 µM (inactive)	–	–	–	–	–
COC1OC(COS(=O)(=O)c2ccc(C)cc2)C(O)C(OS(=O)(=O)c2ccc(C)cc2)C1OS(=O)(=O)c1ccc(C)cc1 (stereo unspecified)	> 100 µM (inactive)	95.9 µM (inactive)	> 100 µM (inactive)	> 100 µM (inactive)	> 100 µM (inactive)	> 100 µM (inactive)	> 100 µM (inactive)	> 100 µM (inactive)	> 100 µM (inactive)	> 100 µM (inactive)	> 100	> 100 µM (inactive)	> 100 µM (inactive)	> 100 µM (inactive)	–	–	–	–	–
